Reference: patent publication EP0329223A2, “Acetylenic and triyne cyclic carbonates” (Merck & Co., Inc., priority 1988, dated 1989)
Converted amounts (≈) assume the structure as drawn. Like-named read-outs stand apart in the source and are kept apart here.

What was measured:
Candida albicans MY 1055 = assay: Antifungal assay, minimum inhibitory concentration; format: cell-based; conditions: lowest concentration that inhibits visible growth, Yeast Nitrogen Base/0.5% glucose, 37°C for 18 hours, starting inoculum 3-5 x 10⁻⁴ CFU/ml
Description: Antifungal activity was determined against Candida albicans MY 1055, a yeast strain maintained by Merck and Co; Rahway, New Jersey. Minimum inhibitory concentrations were determined using a starting inoculum of […]. The medium was Yeast Nitrogen Base/0.5% glucose. Test compounds were dissolved in a minimum amount of 50% aqueous ethanol and diluted to final concentrations with yeast medium. Samples were incubated at 37°C for 18 hours. The minimum inhibitory concentration (MIC), reported in µg/ml, is the lowest concentration of test compound that inhibits visible growth.

[1] = biological target: T1, Acetoacetyl-coenzyme A thiolase (Rattus norvegicus, UniProt Q5XI22); assay: Acetoacetyl-coenzyme A thiolase inhibition, coupled spectrophotometric assay (NADH oxidation at 340 nm); format: biochemical, Sprague Dawley rats
T1 construct: prepared from the livers of Sprague Dawley rats treated in the diet for one week with 0.075% lovastatin to induce the enzyme; from tissue; host or cells: liver of lovastatin-treated Sprague Dawley rats
T1 sequence (Q5XI22 whole entry): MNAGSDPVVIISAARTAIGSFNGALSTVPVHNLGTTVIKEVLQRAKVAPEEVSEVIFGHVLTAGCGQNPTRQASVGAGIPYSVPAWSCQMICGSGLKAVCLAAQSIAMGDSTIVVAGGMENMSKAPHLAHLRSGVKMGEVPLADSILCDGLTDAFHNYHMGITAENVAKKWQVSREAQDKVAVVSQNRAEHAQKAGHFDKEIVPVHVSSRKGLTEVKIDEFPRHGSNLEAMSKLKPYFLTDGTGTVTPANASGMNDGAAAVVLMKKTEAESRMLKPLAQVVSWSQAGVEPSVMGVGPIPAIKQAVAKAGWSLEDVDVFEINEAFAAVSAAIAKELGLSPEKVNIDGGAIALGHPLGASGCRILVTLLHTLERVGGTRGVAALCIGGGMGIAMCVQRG
Description: Acetoacetyl-coenzyme A thiolase was prepared from the livers of Sprague Dawley rats treated in the diet for one week with 0.075% lovastatin to induce the enzyme. […] The 0.06 M eluate described by Mehrabian et al. contained the acetoacetyl-coenzyme A thiolase. The isolate was concentrated by ammonium sulfate precipitation, dissolved in the buffer used for elution, and stored at -70°C.
Reaction was measured at room temperature for a time period necessary to produce a measurable reaction rate. An IC₅₀, the concentration that inhibits 50% of the acetoacetyl-coenzyme A thiolase activity, was determined for each test compound. […]

[2] = enzyme from rat liver (lovastatin-induced), pH 7.5, room temperature, 2.85 mM acetoacetyl-coenzyme A, read-out: IC₅₀

| IC50 [1, 2] [nM] | Compound | MIC (Candida albicans MY 1055) [µg/mL] | MIC (Candida albicans MY 1055; read-out: MIC) [µg/mL] | IC50 [1] [nM] |
| --- | --- | --- | --- | --- |
| – | COC(=O)CCCCCC[C@@H]1OC(=O)O[C@H]1C(O)C#CC#CC#C[Si](C)(C)C (single isomer, unassigned) [Ex. 5] | – | 0.078 (≈ 0.193 µM) | 62 |
| – | COC(=O)CCCCCC[C@@H]1OC(=O)O[C@H]1C(O)C#CC#CC#C[Si](C)(C)C (single isomer, unassigned) [Ex. 6] | – | 0.6 (≈ 1.48 µM) | 990 |
| 24 | C#CC#CC#C[C@@H](O)[C@@H]1OC(=O)O[C@H]1CCCCCCC(=O)OC [Ex. 17, 5-(1(R)-Hydroxy-2,4,6-heptatriynyl)-2-oxo-4(S),5(S)-1,3-dioxolane-4-heptanoic acid, methyl ester] | – | – | – |
| 150 | C#CC#CC#C[C@@H](OC(C)=O)[C@@H]1OC(=O)O[C@H]1CCCCCCC(=O)OC [Ex. 18, 5-(1(R)-(Acetyloxy)-2,4,6-heptatriynyl)-2-oxo-4(S),5(S)-1,3-dioxolane-4-heptanoic acid, methyl ester] | – | – | – |
| 9 | C#CC#CC#C[C@@H](OC(C)=O)[C@@H]1OC(=O)O[C@H]1CCCCCCC(=O)O [Ex. 19, 5-(1(R)-(Acetyloxy)-2,4,6-heptatriynyl)-2-oxo-4(S),5(S)-1,3-dioxolane-4-heptanoic acid] | – | – | – |

| Compound | IC50 [1, 2] [nM] | MIC (Candida albicans MY 1055) [µg/mL] | MIC (Candida albicans MY 1055; read-out: MIC) [µg/mL] | IC50 [1] [nM] |
| --- | --- | --- | --- | --- |
| 5-(1(R)-Methoxy-2,4,6-octatriynyl)-2-oxo-4(S),5(S)-1,3 dioxolane-4-heptanoic acid, methyl ester [Ex. 13] | 560 | 5 | – | – |
| C#CC#CC#C[C@@H](OC)[C@@H]1OC(=O)O[C@H]1CCCCCCC(=O)OC [Ex. 20, 5-(1(R)-Methoxy-2,4,6-heptatriynyl)-2-oxo-4(S),5(S)-1,3-dioxolane-4 heptanoic acid, methyl ester] | 46 | – | – | – |
